This is an account of results in PubChem BioAssay (NCI).

Where “and” joins values, the source holds several entries; their conditions need not be identical. Identical values can stand only once.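 Test compounds were applied to cells in 96-well plates for 48 hours at 5 doses. Here, GI50 denotes the concentration required for 50% inhibition of growth. TGI denotes the concentration required for complete inhibition of growth.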

Among the test systems are A498 renal; HT29 colon; IGROV1 ovarian; NCI-H23 lung; OVCAR-8 ovarian; SK-MEL-2 melanoma; SK-MEL-5 melanoma; SW-620 colon; TK-10 renal; UACC-257 melanoma.
Common to all, as to experiment: growth of human tumour cells (NCI), 48 h

Consider `COC(=O)c1cc2oc(/C=C3\SC(=S)N(NC(C)=O)C3=O)cc2n1Cc1ccccc1`, for which the GI50 in the experiment with A498 renal was 8.07 µM; in the experiment with HT29 colon, 3.47 µM; with IGROV1 ovarian, 7.31 µM; in the experiment on NCI-H23 lung, 7.12 µM; in the experiment with OVCAR-8 ovarian it was 2.68 µM; in the experiment with SK-MEL-2 melanoma it was 18.5 µM. The GI50 in the experiment with SK-MEL-5 melanoma was 2.08 µM; in the experiment on SW-620 colon, 8.35 µM; with TK-10 renal, 6.14 µM; with UACC-257 melanoma it was 5.69 µM. In addition, the TGI in the experiment with A498 renal is 16.8 µM; with HT29 colon, 12.8 µM; in the experiment on IGROV1 ovarian, above 50 µM; in the experiment with NCI-H23 lung, 16.8 µM; in the experiment with OVCAR-8 ovarian, 19.4 µM; with SK-MEL-2 melanoma it was above 50 µM. The TGI worked out at 10.7 µM with SK-MEL-5 melanoma, 39 µM in the experiment on SW-620 colon, 15.5 µM in the experiment with TK-10 renal and 16.4 µM with UACC-257 melanoma.
For `O=C(CCCCCCC(=O)Nc1ccc2c(c1)/C(=C/c1ccc[nH]1)C(=O)N2)NO`, the GI50 with A498 renal is 0.358 µM; with HT29 colon it was 0.506 µM; with IGROV1 ovarian, 1.61 µM; with NCI-H23 lung, 1.88 µM; in the experiment with OVCAR-8 ovarian, 0.472 µM; with SK-MEL-2 melanoma, 0.851 µM. The GI50 in the experiment on SK-MEL-5 melanoma was 0.24 µM; in the experiment on SW-620 colon it was 0.271 µM; with TK-10 renal, 0.795 µM; with UACC-257 melanoma, 0.353 µM. Moreover, the TGI in the experiment with A498 renal was 2.06 µM; in the experiment with HT29 colon, 8.51 µM; in the experiment on IGROV1 ovarian, 7.9 µM; in the experiment on NCI-H23 lung, 14.8 µM; in the experiment on OVCAR-8 ovarian, above 89.4 µM; in the experiment with SK-MEL-2 melanoma, 7.13 µM. Also, the TGI with SK-MEL-5 melanoma was 1.41 µM; in the experiment on SW-620 colon, above 21.9 µM; in the experiment on TK-10 renal, 7.78 µM; with UACC-257 melanoma it was 5.44 µM.
Consider `CCOC(=O)NC(=O)c1cn(CCN2CCN(C(=O)NCCCCCCNC(=O)N3CCN(CCn4cc(C(=O)NC(=O)OCC)c(=O)n(CCN(CC)CC)c4=O)CC3)CC2)c(=O)n(CCC(CC)CC)c1=O`, for which the TGI in the experiment with A498 renal, in the experiment on HT29 colon, in the experiment with IGROV1 ovarian, in the experiment on NCI-H23 lung, in the experiment with OVCAR-8 ovarian and in the experiment on SK-MEL-2 melanoma was above 100 µM each time. The TGI in the experiment with SK-MEL-5 melanoma, in the experiment on SW-620 colon, in the experiment on TK-10 renal and in the experiment on UACC-257 melanoma was above 100 µM each time.
Take `Cc1ccc(S(=O)(=O)Nc2nc3ccccc3nc2Nc2ccc3nsnc3c2)cc1`: the GI50 in the experiment with A498 renal is 4.85 µM and 2.86 µM; with HT29 colon it was 6.78 µM and 3.1 µM; in the experiment with IGROV1 ovarian it was 4.16 µM and 2.7 µM; with NCI-H23 lung it was 2.78 µM and 2.93 µM; in the experiment with OVCAR-8 ovarian it was 4.3 µM and 4.19 µM; in the experiment with SK-MEL-2 melanoma, 2.87 µM and 3.22 µM. In addition, the GI50 with SK-MEL-5 melanoma was 2.65 µM and 1.88 µM; in the experiment with SW-620 colon it was 7.95 µM and 5.22 µM; in the experiment with TK-10 renal, 5.18 µM and 3.14 µM; in the experiment on UACC-257 melanoma it was 3.56 µM and 2.87 µM. Also, the TGI in the experiment with A498 renal is above 100 µM; in the experiment on HT29 colon it was above 100 µM; in the experiment with IGROV1 ovarian, > 100 µM and 59.4 µM; in the experiment on NCI-H23 lung it was 44.5 µM and > 100 µM; in the experiment on OVCAR-8 ovarian, above 100 µM; in the experiment with SK-MEL-5 melanoma, 11.6 µM and 7.46 µM. The TGI in the experiment on SW-620 colon was above 100 µM; in the experiment with TK-10 renal it was above 100 µM; in the experiment on UACC-257 melanoma, 27.7 µM and > 100 µM.
Take `C[C@@H]1C[C@@]2(O[C@@H]2C)C(=O)O[C@@H]2CCN3CC=C(COC(=O)[C@]1(C)O)[C@H]23`: the TGI in the experiment with A498 renal, with HT29 colon, in the experiment on IGROV1 ovarian, with NCI-H23 lung, with OVCAR-8 ovarian and in the experiment with SK-MEL-2 melanoma was above 100 µM in each case. The TGI with SK-MEL-5 melanoma, in the experiment with SW-620 colon, in the experiment with TK-10 renal and in the experiment with UACC-257 melanoma was above 100 µM in each case.
On to `COc1ccc(/C=C/C(=O)c2cc3c(N)c(C(=O)Nc4ccccc4)sc3nc2C)cc1`, for which the GI50 in the experiment on A498 renal was 0.114 µM; with HT29 colon, 0.179 µM; with IGROV1 ovarian it was 0.252 µM; in the experiment with NCI-H23 lung, 0.227 µM; in the experiment with OVCAR-8 ovarian, 0.277 µM; in the experiment on SK-MEL-2 melanoma, 0.422 µM. The GI50 with SK-MEL-5 melanoma was 0.136 µM; with SW-620 colon, 0.216 µM; in the experiment on TK-10 renal, 1.27 µM; with UACC-257 melanoma it was 18 µM. Further, the TGI with A498 renal was 0.487 µM; with HT29 colon, above 26.6 µM; in the experiment on IGROV1 ovarian, above 50 µM; with OVCAR-8 ovarian it was above 50 µM; in the experiment on SK-MEL-2 melanoma, above 50 µM; in the experiment on SK-MEL-5 melanoma, 0.862 µM. For the same compound, the values for the TGI in the experiment with SW-620 colon, with TK-10 renal and with UACC-257 melanoma were 11.7 µM, above 50 µM and above 50 µM, respectively.
Take `CC1(C)C2C/C(=C\c3ccccc3)C(=O)C1C2` (stereo not drawn): the TGI in the experiment with A498 renal, with HT29 colon, in the experiment on IGROV1 ovarian, in the experiment on NCI-H23 lung, in the experiment on OVCAR-8 ovarian and in the experiment with SK-MEL-2 melanoma was above 100 µM throughout. The TGI in the experiment on SK-MEL-5 melanoma, in the experiment on SW-620 colon, in the experiment with TK-10 renal and with UACC-257 melanoma was above 100 µM each time.
Regarding `COC(=O)C(CC(=O)Nc1ccc(Cl)c(Cl)c1)C(=O)C(=O)NC1C2CC3CC(C2)CC1C3` (stereo not drawn), the TGI in the experiment with A498 renal, in the experiment on HT29 colon, in the experiment with IGROV1 ovarian, with NCI-H23 lung, with OVCAR-8 ovarian and with SK-MEL-2 melanoma was above 100 µM each time. Besides, the TGI in the experiment on SK-MEL-5 melanoma, in the experiment on SW-620 colon, in the experiment with TK-10 renal and in the experiment with UACC-257 melanoma was above 100 µM in each case.
Regarding `O=C(NCP(=O)(O)O)c1cccnc1`, the TGI in the experiment with A498 renal, in the experiment on HT29 colon, in the experiment on IGROV1 ovarian, in the experiment with NCI-H23 lung, in the experiment on OVCAR-8 ovarian and in the experiment on SK-MEL-2 melanoma was above 100 µM each time. For the same compound, the TGI in the experiment on SK-MEL-5 melanoma, in the experiment with SW-620 colon, in the experiment with TK-10 renal and in the experiment with UACC-257 melanoma was above 100 µM throughout.
As for `COc1cc(-c2oc3c(OC)c(O)c(OC)c(O)c3c(=O)c2OC)ccc1O`, the TGI in the experiment on A498 renal is above 100 µM; in the experiment on HT29 colon, above 100 µM; with IGROV1 ovarian it was 65.9 µM; in the experiment with NCI-H23 lung it was above 100 µM; in the experiment with OVCAR-8 ovarian, above 100 µM; with SK-MEL-2 melanoma, 74.9 µM. For the same compound, the TGI in the experiment with SK-MEL-5 melanoma is above 100 µM; in the experiment with SW-620 colon it was above 100 µM; in the experiment with TK-10 renal, 98.9 µM; in the experiment with UACC-257 melanoma, above 100 µM.
